# Laboratory results: patent EP2582674B1 (Cymabay Therapeutics, Inc., priority 2010, dated 2011)
# Target: T1, human GPR120 (Homo sapiens, UniProt Q5NUL3)
# T1 construct: host or cells: HEK293 cells co-expressing Gqi5
# T1 sequence (Q5NUL3 1-361): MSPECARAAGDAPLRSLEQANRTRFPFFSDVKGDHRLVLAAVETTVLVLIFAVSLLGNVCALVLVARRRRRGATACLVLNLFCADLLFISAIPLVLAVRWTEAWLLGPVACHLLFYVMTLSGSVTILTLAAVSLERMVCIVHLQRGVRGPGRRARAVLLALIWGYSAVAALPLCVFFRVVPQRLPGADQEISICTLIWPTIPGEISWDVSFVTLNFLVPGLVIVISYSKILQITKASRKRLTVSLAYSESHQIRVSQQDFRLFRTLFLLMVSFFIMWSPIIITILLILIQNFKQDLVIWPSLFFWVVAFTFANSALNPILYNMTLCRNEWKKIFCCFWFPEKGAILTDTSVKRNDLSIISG
# Test: Intracellular Ca2+ assay in human GPR120 stable cell line (FLIPR Calcium 4 dye, Flexstation)
# Type: cell-based
# Conditions: HEK293, % activity at 2.5 µM compared to the maximal activity of the compound of Example 25 at 2.5 µM (=100%); HEK293 cells co-expressing Gqi5; read-out: % Activity (Ex. 25 Reference Compound)
row,Compound,activity at 2.5 µM [%]
1,"[2H]C([2H])(Oc1ccc(CC(C)C(=O)O)cc1F)c1cc(F)cc2c1OC(C)(C)C2 (centres unmarked) [Example 230, 3-(4-(dideuterio(5-fluoro-2,2-dimethyl-2,3-dihydrobenzofuran-7-yl)methoxy)-3-fluorophenyl)-2-methylpropanoic acid]",86.2
2,"CC1(C)Cc2cc(F)cc(COc3ccc(CCC(=O)O)c(Cl)c3)c2O1 [Example 47, 3-(2-chloro-4-((5-fluoro-2,2-dimethyl-2,3-dihydrobenzofuran-7-yl)methoxy)phenyl)propanoic acid]",111
3,"Cc1cc2cccc(COc3ccc4c(c3)CCC4CC(=O)O)c2s1 (centres unmarked) [Example 152, 2-(5-((2-methylbenzo[b]thiophen-7-yl)methoxy)-2,3-dihydro-1H-inden-1-yl)acetic acid]",83.8
4,"CC1(C)Cc2c(COc3ccc4c(c3)CC[C@@H]4CC(=O)O)cc(F)cc2O1 [Example 188, (R)-2-(5-((6-fluoro-2,2-dimethyl-2,3-dihydrobenzofuran-4-yl)methoxy)-2,3-dihydro-1H-inden-1-yl)acetic acid]",104
5,"[2H]C1([2H])c2cc(F)cc(COc3ccc(CC(C)C(=O)O)cc3)c2OC1(C)C (centres unmarked) [Example 145, 3-(4-((3,3-dideuterio-5-fluoro-2,2-dimethyl-2,3-dihydrobenzofuran-7-yl)methoxy)phenyl)-2-methylpropanoic acid]",144
6,"CC1(C)Cc2cc(F)cc(COc3ccc(CCC(=O)O)c4c3CCC4)c2O1 [Example 63, 3-(7-((5-fluoro-2,2-dimethyl-2,3-dihydrobenzofuran-7-yl)methoxy)-2,3-dihydro-1H-inden-4-yl)propanoic acid]",95
7,"CC(Cc1cccc(OCc2cc(Cl)cc3c2OC(C)(C)C3)c1)C(=O)O (centres unmarked) [Example 251, 3-(3-((5-chloro-2,2-dimethyl-2,3-dihydrobenzofuran-7-yl)methoxy)phenyl)-2-methylpropanoic acid]",61.1
8,"CN(C)Cc1cc(OCc2cc(F)cc3c2OC(C)(C)C3)ccc1CCC(=O)O [Example 122, 3-(2-((dimethylamino)methyl)-4-((5-fluoro-2,2-dimethyl-2,3-dihydrobenzofuran-7-yl)methoxy)phenyl)propanoic acid]",3.58
9,"CC1(C)Cc2cc(Cl)cc(COc3cc(F)c(CCC(=O)O)c(F)c3)c2O1 [Example 54, 3-(4-((5-chloro-2,2-dimethyl-2,3-dihydrobenzofuran-7-yl)methoxy)-2,6-difluorophenyl)propanoic acid]",139

# Second part, the compound after the results:
row,activity at 2.5 µM [%],Compound
1,140,"CC(C)Oc1ccc(Cl)cc1COc1ccc2c(c1)CCC2CC(=O)O (centres unmarked) [Example 258, 2-(5-((5-chloro-2-isopropoxybenzyl)oxy)-2,3-dihydro-1H-inden-1-yl)acetic acid]"
2,78.5,"CCOC(Cc1cc(F)c(OCc2cc(F)cc3c2OC(C)(C)C3)c(F)c1)C(=O)O (centres unmarked) [Example 69, 3-(3,5-difluoro-4-((5-fluoro-2,2-dimethyl-2,3-dihydrobenzofuran-7-yl)methoxy)phenyl)-2-ethoxypropanoic acid]"
3,47,"CC(=O)Nc1cc(COc2ccc(CC(C)C(=O)O)cc2)c2c(c1)CC(C)(C)O2 (centres unmarked) [Example 123, 3-(4-((5-acetamido-2,2-dimethyl-2,3-dihydrobenzofuran-7-yl)methoxy)phenyl)-2-methylpropanoic acid]"
4,114,"CC1(C)Cc2cc(F)cc(COc3ccc(CCC(=O)O)c4c3CCCC4)c2O1 [Example 218, 3-(4-((5-fluoro-2,2-dimethyl-2,3-dihydrobenzofuran-7-yl)methoxy)-5,6,7,8-tetrahydronaphthalen-1-yl)propanoic acid]"
5,142,"CC(Cc1ccc(NCc2cc(F)cc3c2OC(C)(C)C3)cc1)C(=O)O (centres unmarked) [Example 67, 3-(4-(((5-fluoro-2,2-dimethyl-2,3-dihydrobenzofuran-7-yl)methyl)amino)phenyl)-2-methylpropanoic acid]"
6,117,"Cc1cc2cccc(COc3c(F)cc(CC(C)C(=O)O)cc3F)c2s1 (centres unmarked) [Example 151, 3-(3,5-difluoro-4-((2-methylbenzo[b]thiophen-7-yl)methoxy)phenyl)-2-methylpropanoic acid]"
7,104,"CC(Cc1ccc(OCc2cc(Cl)cc3c2OC(C)(C)C3O)cc1)C(=O)O (centres unmarked) [Example 130, 3-(4-((5-chloro-3-hydroxy-2,2-dimethyl-2,3-dihydrobenzofuran-7-yl)methoxy)phenyl)-2-methylpropanoic acid]"
8,99,"CC(CCc1ccc(OCc2cc(F)cc3c2OC(C)(C)C3)cc1)C(=O)O (centres unmarked) [Example 171, 4-(4-((5-fluoro-2,2-dimethyl-2,3-dihydrobenzofuran-7-yl)methoxy)phenyl)-2-methylbutanoic acid]"
9,51.5,"CC(Cc1cc(F)c(OCc2cc(OCc3ccccc3)cc3c2OC(C)(C)C3)c(F)c1)C(=O)O (centres unmarked) [Example 111, 3-(4-((5-(benzyloxy)-2,2-dimethyl-2,3-dihydrobenzofuran-7-yl)methoxy)-3,5-difluorophenyl)-2-methylpropanoic acid]"
10,124,"CC1(C)Cc2cc(F)cc(COc3ccc4cc(C(=O)O)ccc4c3)c2O1 [Example 114, 6-((5-fluoro-2,2-dimethyl-2,3-dihydrobenzofuran-7-yl)methoxy)-2-naphthoic acid]"
11,101,"[2H]C([2H])(Oc1ccc(CC(C)C(=O)O)cc1C(F)(F)F)c1cc(F)cc2c1OC(C)(C)C2 (centres unmarked) [Example 231, 3-(4-(dideuterio(5-fluoro-2,2-dimethyl-2,3-dihydrobenzofuran-7-yl)methoxy)-3-(trifluoromethyl)phenyl)-2-methylpropanoic acid]"

# Same assay, conditions: HEK293, % activity at 5 µM compared to the maximal activity of GW9508 at 6.7 µM (=100%); HEK293 cells co-expressing Gqi5; read-out: %Activity (GW9508 Reference Compound)
row,Compound,activity at 5 µM [%]
1,"CC(Cc1cc(F)c(OCc2cccc3c2OCC3)c(F)c1)C(=O)O (centres unmarked) [Example 3, 3-(4-((2,3-dihydrobenzofuran-7-yl)methoxy)-3,5-difluorophenyl)-2-methylpropanoic acid]",124
2,"COc1cc(CC(C)C(=O)O)ccc1OCc1cc(F)cc2c1OC(C)(C)C2 (centres unmarked) [Example 7, 3-(4-((5-fluoro-2,2-dimethyl-2,3-dihydrobenzofuran-7-yl)methoxy)-3-methoxyphenyl)-2-methylpropanoic acid]",168
3,"CC(Cc1ccc(OCc2ccc(F)c3c2OC(C)(C)C3)cc1)C(=O)O (centres unmarked) [Example 30, 3-(4-((4-fluoro-2,2-dimethyl-2,3-dihydrobenzofuran-7-yl)methoxy)phenyl)-2-methylpropanoic acid]",177
4,"CC1(C)Cc2c(F)ccc(COc3c(F)cc(C4CC4C(=O)O)cc3F)c2O1 (centres unmarked) [Example 27, 2-(3,5-difluoro-4-((4-fluoro-2,2-dimethyl-2,3-dihydrobenzofuran-7-yl)methoxy)phenyl)cyclopropanecarboxylic acid]",144
5,"CC(Cc1ccc(OCc2cc(F)cc3c2OC(C)(C)C3)c(F)c1)C(=O)O (centres unmarked) [Example 8, 3-(3-fluoro-4-((5-fluoro-2,2-dimethyl-2,3-dihydrobenzofuran-7-yl)methoxy)phenyl)-2-methylpropanoic acid]",135
6,"CC(Cc1ccc(OCc2cc(Cl)cc3c2OC(C)(C)C3)cc1Cl)C(=O)O (centres unmarked) [Example 26, 3-(2-chloro-4-((5-chloro-2,2-dimethyl-2,3-dihydrobenzofuran-7-yl)methoxy)phenyl)-2-methylpropanoic acid]",164
7,"CC(Cc1cc(F)c(OCc2cc(Cl)cc3c2OC(C)(C)C3)c(F)c1)C(=O)O (centres unmarked) [Example 38, 3-(4-((5-chloro-2,2-dimethyl-2,3-dihydrobenzofuran-7-yl)methoxy)-3,5-difluorophenyl)-2-methylpropanoic acid]",83.4
8,"CC(Cc1ccc(OCc2ccc(F)c3c2OC(C)(C)C3)c(F)c1)C(=O)O (centres unmarked) [Example 29, 3-(3-fluoro-4-((4-fluoro-2,2-dimethyl-2,3-dihydrobenzofuran-7-yl)methoxy)phenyl)-2-methylpropanoic acid]",134

# The remaining lines, values ahead:
row,activity at 5 µM [%],Compound
1,84.5,"CC(Cc1cc(Cl)c(OCc2cc(Cl)cc3c2OC(C)(C)C3)c(Cl)c1)C(=O)O (centres unmarked) [Example 14, 3-(3,5-dichloro-4-((5-chloro-2,2-dimethyl-2,3-dihydrobenzofuran-7-yl)methoxy)phenyl)-2-methylpropanoic acid]"
2,125,"CC1(C)Cc2cc(F)cc(COc3ccc4c(c3)CCC4CC(=O)O)c2O1 (centres unmarked) [Example 37, 2-(5-((5-fluoro-2,2-dimethyl-2,3-dihydrobenzofuran-7-yl)methoxy)-2,3-dihydro-1H-inden-1-yl)acetic acid]"
3,118,"CC(Cc1ccc(OCc2ccc(C(F)(F)F)c3c2OC(C)(C)C3)cc1)C(=O)O (centres unmarked) [Example 34, 3-(4-((2,2-dimethyl-4-(trifluoromethyl)-2,3-dihydrobenzofuran-7-yl)methoxy)phenyl)-2-methylpropanoic acid]"
4,149,"Cc1cc(COc2c(F)cc(CC(C)C(=O)O)cc2F)c2c(c1)CC(C)(C)O2 (centres unmarked) [Example 5, 3-(3,5-difluoro-4-((2,2,5-trimethyl-2,3-dihydrobenzofuran-7-yl)methoxy)phenyl)-2-methylpropanoic acid]"

# Same assay, conditions: eight concentrations from 0.00001 to 20 µM; changes (Max-Min) of fluorescence intensity
row,EC50 [µM],Compound
1,> 10,"CC(Cc1ccc(OCc2ccc(C(F)(F)F)c3c2OC(C)(C)C3)cc1)C(=O)O (centres unmarked) [Example 34, 3-(4-((2,2-dimethyl-4-(trifluoromethyl)-2,3-dihydrobenzofuran-7-yl)methoxy)phenyl)-2-methylpropanoic acid]"
2,1 to 10,"CC(=O)Nc1cc(COc2ccc(CC(C)C(=O)O)cc2)c2c(c1)CC(C)(C)O2 (centres unmarked) [Example 123, 3-(4-((5-acetamido-2,2-dimethyl-2,3-dihydrobenzofuran-7-yl)methoxy)phenyl)-2-methylpropanoic acid]"
3,1 to 10,"CC(Cc1ccc(OCc2cc(Cl)cc3c2OC(C)(C)C3O)cc1)C(=O)O (centres unmarked) [Example 130, 3-(4-((5-chloro-3-hydroxy-2,2-dimethyl-2,3-dihydrobenzofuran-7-yl)methoxy)phenyl)-2-methylpropanoic acid]"
4,1 to 10,"CC(CCc1ccc(OCc2cc(F)cc3c2OC(C)(C)C3)cc1)C(=O)O (centres unmarked) [Example 171, 4-(4-((5-fluoro-2,2-dimethyl-2,3-dihydrobenzofuran-7-yl)methoxy)phenyl)-2-methylbutanoic acid]"
5,1 to 10,"CC(Cc1cc(F)c(OCc2cc(OCc3ccccc3)cc3c2OC(C)(C)C3)c(F)c1)C(=O)O (centres unmarked) [Example 111, 3-(4-((5-(benzyloxy)-2,2-dimethyl-2,3-dihydrobenzofuran-7-yl)methoxy)-3,5-difluorophenyl)-2-methylpropanoic acid]"
6,1 to 10,"CC(Cc1cccc(OCc2cc(Cl)cc3c2OC(C)(C)C3)c1)C(=O)O (centres unmarked) [Example 251, 3-(3-((5-chloro-2,2-dimethyl-2,3-dihydrobenzofuran-7-yl)methoxy)phenyl)-2-methylpropanoic acid]"
